Measured values taken from patent publication US10300059B2, “Pharmaceutical composition and therapeutic combination comprising a cholesteryl ester transfer protein inhibitor and HMG CoA reductase inhibitors” (DEZIMA PHARMA B.V., priority 2014, dated 2019).
Like-named read-outs stand apart in the source and are kept apart here.

Columns and labels:
[1] = data from phase 2 studies; cited from earlier work
[2] = tested on: patients; details: 150 mg once daily; cited from earlier work
[3] = tested on: fasted healthy subjects; details: 200 mg once daily; cited from earlier work
[4] = in humans; accumulates in fat tissue; cited from earlier work
[5] = tested on: patients with mild dyslipidemia; experiment: Double-blind, placebo-controlled phase 2 trial: fasted lipid profile after 12 weeks; assay type: in vivo, human
Procedure: In a double-blind, placebo controlled clinical study the effects of 12 weeks of administration of Compound A alone and in combination with statins in patients with mild dyslipidemia was examined. […] Patients were recruited at 20 sites in the Netherlands and Denmark. The trial was approved by Independent Ethics Committees, and each patient provided written informed consent. The trial was conducted in accordance with the principles of the Declaration of Helsinki and Good Clinical Practice Guidelines and the protocol was registered on ClinicalTrials.gov (NCT01970215). The trial consisted of a screening visit, followed by a run-in phase of 4 weeks (or 6 weeks for patients that required a washout of existing lipid-lowering therapy). […] All treatments were to be taken once daily with food for 12 weeks. […] Follow-up visits were conducted 2 and 8 weeks after the end of treatment. Safety was assessed throughout the trial by monitoring adverse events and concomitant medication use, 12-lead electrocardiograms (ECGs), vital signs, laboratory safety assessments and physical examinations. Additional assessments included salivary cortisol, plasma aldosterone, high-sensitivity C-reactive protein (hsCRP) and endothelin 1. Efficacy assessments included fasted lipid profiles including total cholesterol (TC), HDL-C, LDL-C, triglycerides, apolipoproteins AI, B and E (ApoAI, Apo B and ApoE), lipoprotein a (Lp[a]) and derived parameters. […] Blood samples were collected for pharmacokinetic analysis of Compound A. Total cholesterol and triglycerides were measured by homogenous enzymatic assay using a Modular analyser (cholesterol oxidase peroxidase-peroxidase aminophenazone phenol [CHOP-PAP]) method and a glycerol phosphate oxidase [GPO-PAP] method, respectively. […] Lp(a) was measured by immunoturbidimetry using reagents and standards from Wako Chemicals (Germany). LDL particle size was determined by gradient gel electrophoresis. HDL fraction was separated by a combined ultracentrifugation-precipitation method ((β-quantification). HDL-2 and HDL-3 fractions were then separated by further ultracentrifugation. […] The measurements were performed on an Olympus AU600 automatic analyzer and were calibrated using secondary standards from Roche Diagnostics (total-cholesterol, triglycerides) and Diasys Diagnostics (free cholesterol, phospholipids), respectively. Esterified cholesterol was calculated as the difference between total-cholesterol and free cholesterol. […] The primary and secondary efficacy analyses were performed using an analysis of covariance (ANCOVA) model with treatment and use of statin therapy at randomisation as factors and the baseline value for the respective efficacy variable as a covariate. Least-squares means, standard errors and 2-tailed 95% confidence intervals for each treatment group and for pairwise comparisons between Compound A doses and placebo, between Compound A plus atorvastatin and atorvastatin alone, and between Compound A plus rosuvastatin and rosuvastatin alone were provided. As there were two co-primary efficacy variables, a closed testing procedure was used in order to control the family-wise error. No interim analyses were planned or conducted.

[6] = tested on: patients with mild dyslipidemia; experiment: Serum-driven cholesterol efflux, baseline versus week 12 of the phase 2 trial; assay type: in vivo, human; details: p<0.0001
Excerpt: Bars are means and error bars are standard deviations. The baseline data only includes patients who had both baseline and week 12 data.
In this Figure baseline and week 12 data for serum-driven cholesterol efflux is shown. Bars are means and error bars are standard deviations. The baseline data only includes patients who had both baseline and week 12 data.

[7] = in vivo; cited from earlier work
[8] = tested on: patients; details: 500 mg once daily monotherapy in patients; cited from earlier work
[9] = cited from earlier work
[10] = tested on: endothelin-1; details: animal studies; cited from earlier work
[11] = atorvastatin (20 mg) once daily
[12] = 2.5 mg of Compound A once daily
[13] = rosuvastatin (10 mg) once daily

COc1cc(F)c(C(C)C)cc1-c1ccc(C(F)(F)F)cc1CN1C(=O)O[C@H](c2cc(C(F)(F)F)cc(C(F)(F)F)c2)[C@@H]1C [Anacetrapib, anacetrapib]
mineralocorticoid activity [1]: without mineralocorticoid activity | decrease of LDL-C [2]: 40% | increase of HDL C [2]: 139% | decrease of LDL-C [3]: 36% | increase of HDL C [3]: 97% | half life [4]: 2-4 years

CC(C)c1c(C(=O)Nc2ccccc2)c(-c2ccccc2)c(-c2ccc(F)cc2)n1CC[C@@H](O)C[C@@H](O)CC(=O)O [Atorvastatin, atorvastatin]
HDL-C, percentage change at Week 12 compared to baseline [5, 11]: 1.27 | LDL-C, percentage change at Week 12 compared to baseline [5, 11]: −46.73 | Lp(a), percentage change at Week 12 compared to baseline [5, 11]: −4.46

CCOC(=O)N1c2ccc(C(F)(F)F)cc2[C@@H](N(Cc2cc(C(F)(F)F)cc(C(F)(F)F)c2)c2ncc(OCCCC(=O)O)cn2)C[C@H]1CC [Compound A, {4-[(2-{[3,5-bis(trifluoromethyl)benzyl][(2R,4S)-1-(ethoxycarbonyl)-2-ethyl-6-(trifluoromethyl)-1,2,3,4-tetrahydroquinolin-4-yl]amino}pyrimidin-5-yl)oxy]butanoic acid}]
increase in the ability of serum to promote cholesterol efflux ([6]; 1 mg of Compound A): 16.9% | increase in serum-mediated cholesterol efflux ([6]; 10 mg dose of Compound A): 36.7% | HDL-C, percentage change at Week 12 compared to baseline ([5]; 1 mg of Compound A once daily): 76.04 | LDL-C, percentage change at Week 12 compared to baseline ([5]; 1 mg of Compound A once daily): −27.05 | Lp(a), percentage change at Week 12 compared to baseline ([5]; 1 mg of Compound A once daily): −28.81 | HDL-C, percentage change at Week 12 compared to baseline [5, 12]: 122.28 | LDL-C, percentage change at Week 12 compared to baseline [5, 12]: −34.38 | Lp(a), percentage change at Week 12 compared to baseline [5, 12]: −26.69 | HDL-C, percentage change at Week 12 compared to baseline ([5]; 5 mg of Compound A once daily): 160.90 | LDL-C, percentage change at Week 12 compared to baseline ([5]; 5 mg of Compound A once daily): −47.49 | Lp(a), percentage change at Week 12 compared to baseline ([5]; 5 mg of Compound A once daily): −37.33 | HDL-C, percentage change at Week 12 compared to baseline ([5]; 10 mg of Compound A once daily): 180.64 | LDL-C, percentage change at Week 12 compared to baseline ([5]; 10 mg of Compound A once daily): −47.26 | Lp(a), percentage change at Week 12 compared to baseline ([5]; 10 mg of Compound A once daily): −34.86

CCC(CC)CC1(C(=O)Nc2ccccc2SC(=O)C(C)C)CCCCC1 [Dalcetrapib, dalcetrapib]
effects on LDL-C concentrations [7]: minimal effects | increase of HDL-C [7]: 30-40%

Cc1cc(C)c2c(c1)[C@@H](N(Cc1cc(C(F)(F)F)cc(C(F)(F)F)c1)c1nnn(C)n1)CCCN2C[C@H]1CC[C@H](C(=O)O)CC1 [Evacetrapib, evacetrapib]
mineralocorticoid activity [1]: without mineralocorticoid activity | decrease of LDL-C [8]: 36% | increase of HDL-C [8]: 129%

CC(C)c1nc(N(C)S(C)(=O)=O)nc(-c2ccc(F)cc2)c1/C=C/[C@@H](O)C[C@@H](O)CC(=O)O [Rosuvastatin, rosuvastatin]
HDL-C, percentage change at Week 12 compared to baseline [5, 13]: 6.16 | LDL-C, percentage change at Week 12 compared to baseline [5, 13]: −47.36 | Lp(a), percentage change at Week 12 compared to baseline [5, 13]: −7.79

CCOC(=O)N1c2ccc(C(F)(F)F)cc2[C@@H](N(Cc2cc(C(F)(F)F)cc(C(F)(F)F)c2)C(=O)OC)C[C@H]1CC [Torcetrapib, torcetrapib]
off-target effects ([9]; consistent with mineralocorticoid activity): increased blood pressure, changes in electrolytes (increases in sodium and bicarbonate and decreases in potassium) and increases in aldosterone | decrease of LDL-C ([9]; dosed at 60 mg): 25% | increase of HDL-C ([9]; dosed at 60 mg): 72% | safety concerns ([9]; in combination with the HMG CoA reductase inhibitor atorvastatin): unexpected increase in cardiovascular events and death | expression of endothelin-1 [10]: increases expression of endothelin-1
